This is an account of results in patent US5457103A, “3',5'-di-tert.-butyl-4'-hydroxy flavones” (Adir et Compagnie, priority 1992, dated 1995).

Test [1] relates to Human LDLs. As to the kind of experiment: Modification of LDLs by endothelial cells of the rabbit aorta (inhibition of LDL oxidation, MDA production). The conditions noted are these: 24 hours, endothelial cells of rabbit aorta (RECL B4 line), compounds 0.1 to 100 μM; read-out: IC50 (reduction by 50% of the production of MDA), oxidation of LDLs by endothelial cells. It counts as cell-based. The procedure: (§1) This activity was compared with that of probucol and vitamin E taken as reference products.
Modification of LDLs by endothelial cells
Human LDLs are incubated for 24 hours in the presence of endothelial cells of the rabbit aorta (RECL B4 line, provenance: Pr. Steinberg, USA) and in the absence or in the presence of the tested compounds (from 0.1 to 100 μM).
After incubation, the peroxidation of the LDLs is evaluated as in Example 21 by electrophoresis on agar gel and by the formation of MDA (cf. Steinbrecher, U.P. et al., Proc. Nat. Acad. Sci. USA, 81, (1984), 3883-3887). The activity of the compounds tested is evaluated by calculating the concentrations that reduce by 50% (IC50) the production of MDA compared with the control experiments in the absence of a product of the invention.
The results of this test of inhibition of oxidation of LDLs by endothelial cells are grouped below: […]

The test system of test [2] is Human LDLs. As to the kind of experiment: Modification of LDLs by copper sulphate (inhibition of LDL oxidation, MDA production). It counts as biochemical. Particulars: 24 hours, copper sulfate 5 μM, compounds 0.1 μM to 100 μM; read-out: IC50 (reduction by 50% of the production of MDA), oxidation of LDLs by copper sulfate. The procedure:
as §1
Modification of LDLs by copper sulphate
Human LDLs are incubated for 24 hours in the presence of copper sulfate (5 μM) and in the absence or in the presence of the compounds tested (from 0.1 μM to 100 μM).
After incubation, the peroxidation of the LDLs is evaluated by electrophoresis on agar gel and by the formation of one of the products of lipid peroxidation: malonic dialdehyde (MDA) (cf. Parthasarathy S. et al., J. Clin. Invest., 77, (1986), 641-644).
The activity of the compounds tested is evaluated by calculating the concentrations that reduce by 50% (IC50) the production of MDA compared with the control experiments in the absence of a product of the invention.

Test [3] concerns coronary arteries caused to contract by F2α prostaglandin (PGF2α). As to the kind of experiment: Vasorelaxant activity on isolated coronary artery rings contracted by PGF2α. Particulars: for activity at 0.1 µM / activity at 0.3 µM / activity at 1 µM / activity at 3 µM / activity at 10 µM: 0.25 h, PGF2α 4 μM, indomethacin 10 μM, cumulative concentrations every 15 minutes, read-out: tension as a percentage of the maximum tension observed under PGF2α. On the set-up: species or system Yucatan miniature pigs. The procedure: Study of the compounds of the invention on isolated vessels
Yucatan miniature pigs (Ch. River) are anaesthetised with pentobarbitone. The circumflex branch of the left coronary artery is removed and proximal rings of approximately 4 mm are prepared. The organs are placed in a temperature-controlled 20 ml bath containing a physiological solution having the composition:
maintained at 37° C., pH =7.4 and with 95% oxygen and 5% carbon dioxide. The initial tension is established progressively up to 6 g. After a stabilisation period of 60 minutes, the rings are caused to contract by PGF2a (4 μM) in the presence of indomethacin (10 μM). As soon as this concentration has stabilised, the products of the present invention are tested by adding cumulative concentrations of the product of Example 17 and probucol every 15 minutes in comparison with the control experiments with the solvent used (dimethyl sulfoxide:DMSO).

Some results are limits rather than exact numbers.

Take `CC(C)(C)c1cc(C(=O)Oc2ccc3c(=O)cc(-c4cc(C(C)(C)C)c(O)c(C(C)(C)C)c4)oc3c2)cc(C(C)(C)C)c1O` [Example 20, 3',5'-di-tert-butyl-4'-hydroxy-7-(3",5"-di-tert-butyl-4"-hydroxy)benzoyloxyflavone]: the results for the IC50 in the test with Human LDLs [1] and in the test with Human LDLs [2] were 0.7 µM and 30 µM, respectively.

As for `CC(C)(C)c1cc(-c2cc(=O)c3ccc(OCC(=O)O)cc3o2)cc(C(C)(C)C)c1O` [Example 17, 2-[7-(3',5'-di-tert.-butyl-4'-hydroxy)flavonyl]oxyacetic acid], the values for the IC50 in the test on Human LDLs [1] and in the test with Human LDLs [2] were 0.5 µM and 3 µM, respectively.

Take `CC(C)(C)c1cc(-c2cc(=O)c3ccc(OCC(=O)N4CCN(Cc5ccccc5)CC4)cc3o2)cc(C(C)(C)C)c1O` [Example 6, 3',5'-di-tert.-butyl-4'-hydroxy-7-[2"-(N-benzylpiperazino)-2"-oxo-ethoxy]flavone]: the IC50 with Human LDLs [2] was determined as 3 µM.

Turning to `CC(C)(C)c1cc(-c2cc(=O)c3ccccc3o2)cc(C(C)(C)C)c1O` [Example 14, 3',5'-di-tert-butyl-4'-hydroxyflavone], the IC50 came to 2.5 µM with Human LDLs [1] and 3 µM in the test on Human LDLs [2].

Regarding VITAMIN E [reference compound], the figures for the IC50 in the test with Human LDLs [1] and with Human LDLs [2] were 4 µM and above 100 µM, respectively.

Consider `CC(C)(C)c1cc(-c2cc(=O)c3ccc(OCC(=O)N4CCCCC4)cc3o2)cc(C(C)(C)C)c1O` [Example 5, 3',5'-di-tert-butyl-4'-hydroxy-7-(2"-piperidino-2"-oxoethoxy)flavone], for which the IC50 in the test with Human LDLs [2] amounted to 3 µM.

For `CC(C)(C)c1cc(-c2cc(=O)c3ccc(OCC(=O)O)cc3o2)cc(C(C)(C)C)c1O` [Example 18], the IC50 in the test on Human LDLs [2] is 5 µM.

Turning to `CCOC(=O)COc1ccc2c(=O)cc(-c3cc(C(C)(C)C)c(O)c(C(C)(C)C)c3)oc2c1` [Example 16, Ethyl 2-[7-(3',5'-di-tert.-butyl-4'-hydroxy)flavonyl]oxyacetate], in test [3] (Sus scrofa), the activity at 0.1 µM was found to be 95.4%, the activity at 0.3 µM was found to be 85%, the activity at 1 µM was found to be 74.1% and the activity at 3 µM came out at 37.3%. Moreover, in test [3] (Sus scrofa), the activity at 10 µM amounted to 20.2%. In addition, the IC50 in test [3] (Sus scrofa, coronary artery rings contracted by PGF2α, read-out: IC50 of vascular relaxation) was around 2.6 µM. Moreover, the “vascular relaxation (in words)” value in test [3] (coronary artery rings contracted by PGF2α) is “concentration-dependent vascular relaxation”. For the same compound, in the test with Human LDLs [1], the IC50 was 0.8 µM. Moreover, the IC50 in the test with Human LDLs [2] came to 3 µM.

Regarding `CC(C)(C)c1cc(-c2cc(=O)c3ccc(OCCN4CCOCC4)cc3o2)cc(C(C)(C)C)c1O` [Example 3, 3', 5'-di-tert.-butyl-4'-hydroxy-.7-(4"-morpholinylethoxy)flavone], the IC50 in the test on Human LDLs [2] was 0.8 µM.

`CCCCCCOc1ccc2c(=O)cc(-c3cc(C(C)(C)C)c(O)c(C(C)(C)C)c3)oc2c1` [Example 2, 3',5'-di-tert.-butyl-7-n-hexyloxy-4'-hydroxyflavone]: in the test on Human LDLs [2], the IC50 turned out to be 5 µM.

For the compound `CCOC(=O)C(C)(C)Oc1ccc2c(=O)cc(-c3cc(C(C)(C)C)c(O)c(C(C)(C)C)c3)oc2c1` [Example 15, Ethyl 2-17-(3',5'-di-tert.-butyl-4'-hydroxy)flavonyl]oxy-2,2-dimethyl acetate], the IC50 in the test with Human LDLs [1] is 0.5 µM; in the test on Human LDLs [2], 3 µM.

Regarding `CC(C)(C)c1cc(-c2cc(=O)c3ccc(OCc4ccc(Cl)cc4)cc3o2)cc(C(C)(C)C)c1O` [Example 4, 7-p-chlorobenzyloxy-3',5'-di-tert.-butyl-4'-hydroxyflavone], the IC50 in the test on Human LDLs [2] is 7 µM.

Regarding `CCN(CC)C(=O)COc1ccc2c(=O)cc(-c3cc(C(C)(C)C)c(O)c(C(C)(C)C)c3)oc2c1` [Example 7, 3',5'-di-tert-butyl-4'-hydroxy-7-(N,N-diethylacetamidoxy) flavone], in the test with Human LDLs [2], the IC50 amounted to 3 µM.

As for `CC(C)(C)c1cc(-c2cc(=O)c3ccc(O)cc3o2)cc(C(C)(C)C)c1O` [Example 1, 3',5'-di-tert-butyl-7,4'-dihydroxyflavone], the IC50 with Human LDLs [2] was found to be 1 µM.

For `CC(C)(Sc1cc(C(C)(C)C)c(O)c(C(C)(C)C)c1)Sc1cc(C(C)(C)C)c(O)c(C(C)(C)C)c1` [PROBUCOL, reference compound], in test [3] (Sus scrofa), the activity at 0.1 µM is 93.3%, the activity at 0.3 µM came to 85.6%, the activity at 1 µM was 77.3% and the activity at 3 µM was 66%. Moreover, in test [3] (Sus scrofa), the activity at 10 µM amounted to 49.2%. Besides, in the test with Human LDLs [1], the IC50 was 4 µM. The IC50 with Human LDLs [2] came to 3 µM.
